Calls of active or inactive are those of the source. The calls are words filed in the database; no cut-off is given here. Starred links: 1 amine or outer side, 2 acyl side, 3 side chain; linkers in the order of their positions; H or OH if unused. Positions of bridges follow the written chain, without caps; N, C: chain ends. Non-standard residues stand in square brackets, D forms with d. Residues, ends and D or L forms follow the SMILES beside them. Chains are numbered I, II in the order given. Actinocin(9to1) = Cc1c2oc3c(C)ccc(C(=O)[*:1])c3nc-2c(C(=O)[*:2])c(N)c1=O; NMeV = CN[C@H](C(=O)O)C(C)C; Sar = CNCC(=O)O
Tests used:
[1] = Toxicity in ICR mouse xenografted with mouse H22 cells assessed as body weight loss at 0.25 mg/kg,SC for 10 consecutive days; assay type: organism-based; details: in vivo
[2] = system: H22; experiment: Antitumor activity against mouse H22 cells xenografted in ICR mouse assessed as tumor growth inhibition at 0.25 mg/kg,SC for 10 consecutive days; assay type: functional, organism-based
[3] = molecular target: T1, Glutaminase kidney isoform, mitochondrial (Homo sapiens, UniProt O94925); experiment: Negative allosteric modulator activity at human wildtype KGA using glutamine as substrate preincubated for 1 hr followed by substrate addition in presence of GDH and NADP and measured after 4 hrs by EZMTT reagent based dilution assay
T1 sequence (O94925 whole entry): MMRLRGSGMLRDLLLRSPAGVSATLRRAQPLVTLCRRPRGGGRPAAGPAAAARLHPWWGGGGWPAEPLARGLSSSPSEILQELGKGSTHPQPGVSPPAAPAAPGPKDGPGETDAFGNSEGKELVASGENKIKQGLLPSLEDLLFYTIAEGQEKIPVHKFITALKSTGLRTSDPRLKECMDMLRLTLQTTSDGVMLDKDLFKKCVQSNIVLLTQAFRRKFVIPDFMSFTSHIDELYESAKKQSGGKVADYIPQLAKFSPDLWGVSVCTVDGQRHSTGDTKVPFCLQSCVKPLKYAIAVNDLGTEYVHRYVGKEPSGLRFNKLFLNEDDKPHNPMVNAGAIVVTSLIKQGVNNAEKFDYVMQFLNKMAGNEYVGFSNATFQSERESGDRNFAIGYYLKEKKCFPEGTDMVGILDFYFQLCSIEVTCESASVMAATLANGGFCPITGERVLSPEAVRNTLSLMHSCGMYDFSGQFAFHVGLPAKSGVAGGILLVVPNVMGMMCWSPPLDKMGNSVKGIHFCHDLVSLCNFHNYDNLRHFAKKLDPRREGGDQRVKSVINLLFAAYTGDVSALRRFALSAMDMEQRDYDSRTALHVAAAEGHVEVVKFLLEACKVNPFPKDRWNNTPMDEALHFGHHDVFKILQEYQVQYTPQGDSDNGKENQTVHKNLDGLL

[4] = Negative allosteric modulator activity at human KGA K320A mutant using glutamine as substrate preincubated for 1 hr followed by substrate addition in presence of GDH and NADP and measured after 4 hrs by EZMTT reagent based dilution assay
[5] = system: H22; experiment: Antitumor activity against mouse H22 cells xenografted in ICR mouse assessed as increase in survival time at SC administration for 10 consecutive days and measured after 32 days; assay type: functional; details: time 32.0 day
[6] = Negative allosteric modulator activity at Escherichia coli GDH incubated for 1.5 hrs in presence of glutamate and NADP by EZMTT assay
[7] = Toxicity in ICR mouse xenografted with mouse H22 cells assessed as body weight loss at 10 mg/kg,SC for 10 consecutive days; assay type: organism-based; details: in vivo
[8] = system: H22; experiment: Antitumor activity against mouse H22 cells xenografted in ICR mouse assessed as reduction in tumor size at 10 mg/kg,SC for 10 consecutive days; assay type: functional; parameters: scale not given: the % may be the effect or the level left
[9] = molecular target: Thioredoxin reductase (Escherichia coli (strain K12), UniProt P0A9P4); experiment: Negative allosteric modulator activity at Escherichia coli TrxR using DTNB as substrate preincubated for 20 mins followed by substrate addition in presence of NADPH and measured after 60 mins
Sequence of Thioredoxin reductase (P0A9P4 whole entry, canonical isoform): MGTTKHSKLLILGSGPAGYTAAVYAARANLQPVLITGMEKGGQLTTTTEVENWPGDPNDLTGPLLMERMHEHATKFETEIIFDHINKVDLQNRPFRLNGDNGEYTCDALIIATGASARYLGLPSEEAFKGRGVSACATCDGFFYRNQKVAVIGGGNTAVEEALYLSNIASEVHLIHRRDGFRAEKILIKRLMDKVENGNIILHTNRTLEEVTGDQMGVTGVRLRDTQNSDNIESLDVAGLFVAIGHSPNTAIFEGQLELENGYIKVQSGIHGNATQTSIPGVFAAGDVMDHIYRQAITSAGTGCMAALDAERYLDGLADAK

[10] = molecular target: T2, Glutaminase kidney isoform, mitochondrial (Homo sapiens) (UniProt O94925); experiment: Binding affinity to human biotinylated wildtype KGA at 0.01 to 1 uM by biolayer interferometry assay; details: filed as negative allosteric modulator, dose 0.01-1 µM
T2 sequence (whole entry): T1 sequence (O94925 whole entry)

[11] = Toxicity in ICR mouse xenografted with mouse H22 cells assessed as change in body weight at 1 to 10 mg/kg,SC for 10 consecutive days and measured after 32 days; assay type: organism-based; details: in vivo, 768 h, dose 1-10 mg/kg, time 32 day
[12] = system: A549; experiment: Antiproliferative activity against human A549 cells assessed as cell growth inhibition incubated for 5 days by EZMTT assay; assay type: functional, cell-based; details: A549, 120 h
[13] = species on record: Homo sapiens; experiment: Binding affinity to human biotinylated KGA K320A mutant at 0.01 to 1 uM by biolayer interferometry assay; details: dose 0.01-1 µM
[14] = system: H22; experiment: Antiproliferative activity against mouse H22 cells assessed as cell growth inhibition incubated for 5 days by EZMTT assay; assay type: functional, cell-based; details: H22, 120 h
[15] = molecular target: T1, Glutaminase kidney isoform, mitochondrial; experiment: Negative allosteric modulator activity at human wildtype KGA incubated for 5 hrs in presence of GDH and NADP by EZMTT assay
[16] = system: ACHN; experiment: Antiproliferative activity against human ACHN cells assessed as cell growth inhibition incubated for 5 days by EZMTT assay; assay type: functional, cell-based; details: 120 h
[17] = system: CAKI-1; experiment: Antiproliferative activity against human CAKI-1 cells assessed as cell growth inhibition incubated for 5 days by EZMTT assay; assay type: functional, cell-based; details: CAKI-1, 120 h
[18] = Toxicity in ICR mouse xenografted with mouse H22 cells assessed as change in body weight at 30 mg/kg,SC for 10 consecutive days and measured after 32 days; assay type: organism-based; details: in vivo, 768 h, time 32 day
[19] = Toxicity in ICR mouse xenografted with mouse H22 cells assessed as change in body weight at 10 mg/kg,SC for 10 consecutive days and measured after 32 days; assay type: organism-based; details: in vivo, 768 h, time 32 day
[20] = system: HGC-27; experiment: Antiproliferative activity against human HGC-27 cells assessed as cell growth inhibition incubated for 5 days by EZMTT assay; assay type: functional, cell-based; details: HGC-27, 120 h
[21] = system: U-251; experiment: Antiproliferative activity against human U-251 cells assessed as cell growth inhibition incubated for 5 days by EZMTT assay; assay type: functional, cell-based; details: U-251, 120 h
[22] = system: KATO III stomach cancer cell line; experiment: Antiproliferative activity against human KATO III stomach cancer cell line assessed as cell growth inhibition incubated for 5 days by EZMTT assay; assay type: functional, cell-based; details: 120 h
[23] = system: HepG2; experiment: Antiproliferative activity against human HepG2 cells assessed as cell growth inhibition incubated for 5 days by EZMTT assay; assay type: functional, cell-based; details: HepG2, 120 h
[24] = species on record: Homo sapiens; experiment: Binding affinity to human biotinylated KGA K320A mutant at 1 to 10 uM by biolayer interferometry assay; details: dose 1-10 µM
[25] = system: H22; experiment: Antitumor activity against mouse H22 cells xenografted in ICR mouse assessed as increase in survival time at 10 mg/kg,SC administration for 10 consecutive days and measured after 32 days; assay type: functional, organism-based; details: time 32.0 day

Compound	IC50 [6]	IC50 [9]	IC50 [12]	IC50 [14]	IC50 [15]	further results
Cc1c2oc3c(C)ccc(C(=O)N[C@@H]4C(=O)N[C@H](C(C)C)C(=O)N5CCC[C@H]5C(=O)N(C)CC(=O)N(C)[C@@H](C(C)C)C(=O)O[C@@H]4C)c3nc-2c(C(=O)N[C@@H]2C(=O)N[C@H](C(C)C)C(=O)N3CCC[C@H]3C(=O)N(C)CC(=O)N(C)[C@@H](C(C)C)C(=O)O[C@@H]2C)c(N)c1=O [DACTINOMYCIN] (I: T[dV]P[Sar][NMeV] / II: T[dV]P[Sar][NMeV]; ester I:1-I:C, II:1-II:C; linker I:N-II:N via Actinocin(9to1))						Activity [1]: Toxic; Activity [2]: Active
Cc1nn(CC[Se][Se]CCn2nc(C)c3ccccc32)c2ccccc12	> 10 µM	0.5 µM	0.75 µM	3.5 µM	0.2 µM	IC50 [3]: 2.2 µM; IC50 [4]: > 10 µM; Activity [5]: Dose-Dependent Effect; Activity [7]: Non-Toxic; Activity [8]: ~70%; Activity [10]: Active; Activity [11]: Toxic; Activity [13]: inactive
Cc1nn(CC[Se][Se]CCn2nc(C)c(Cl)c2C)c(C)c1Cl	> 10 µM	0.7 µM	3 µM	4 µM	0.54 µM	
Cc1cc(C)n(CC[Se][Se]CCn2nc(C)cc2C)n1	> 10 µM	3.7 µM	1.7 µM	2.8 µM	3.6 µM	
O=C1c2ccccc2C(=O)N1CC[Se][Se]CCN1C(=O)c2ccccc2C1=O	> 10 µM	0.7 µM	1.6 µM	0.83 µM	0.4 µM	IC50 [3]: 2.1 µM; IC50 [4]: > 10 µM; Activity [5]: Dose-Dependent Effect; IC50 [16]: 2.1 µM; Activity [7]: Non-Toxic; Activity [8]: ~70%; IC50 [17]: 3.3 µM; Activity [18]: Toxic; Activity [19]: Toxic; IC50 [20]: 1.2 µM; IC50 [21]: 1.6 µM; IC50 [22]: 1.65 µM; IC50 [23]: 1.9 µM
Nc1nnc(CCCCCCc2nnc(N)[se]2)[se]1	> 10 µM	> 10 µM	> 10 µM	> 10 µM	> 10 µM	
Nc1nnc(CC[Se][Se]CCc2nnc(N)s2)s1	> 10 µM	3 µM	9 µM	2.6 µM	4 µM	
O=C1c2ccccc2C(=O)N1CCSSCCN1C(=O)c2ccccc2C1=O	> 10 µM	> 10 µM	> 10 µM	> 10 µM	> 10 µM	
Cc1nn(CCCCCCn2nc(C)c(Cl)c2C)c(C)c1Cl	> 10 µM	> 10 µM	> 10 µM	> 10 µM	> 10 µM	
c1ccc(CC[Se][Se]CCc2ccccc2)cc1	> 10 µM	13 µM	> 10 µM	5.6 µM	> 10 µM	
O=[N+]([O-])c1ccc2c(cnn2CC[Se][Se]CCn2ncc3cc([N+](=O)[O-])ccc32)c1	> 10 µM	0.7 µM	0.4 µM	8 µM	0.4 µM	
O=C(Cc1cccc(OC(F)(F)F)c1)Nc1ccc(CCCCc2nnc(NC(=O)Cc3ccccn3)s2)nn1	> 10 µM	> 10 µM		> 10 µM		IC50 [4]: 0.3 µM; Activity [24]: inactive; Activity [25]: inactive
Cc1nn(CCSSCCn2nc(C)c(Cl)c2C)c(C)c1Cl	> 10 µM	> 10 µM	> 10 µM	> 10 µM	> 10 µM	
Cc1nn(CCC[Se]CCn2nc(C)c(Cl)c2C)c(C)c1Cl	> 10 µM	> 10 µM	> 10 µM	8 µM	> 10 µM	
Nc1nnc(CC[Se][Se]CCc2nnc(N)[se]2)[se]1	> 10 µM	4 µM	8 µM	2.6 µM	3 µM	
CCCCCCCC[Se][Se]CCCCCCCC	> 10 µM	> 10 µM	> 10 µM	> 10 µM	> 10 µM	
Nc1nnc(CCCCCCc2nnc(N)s2)s1	> 10 µM	> 10 µM	> 10 µM	> 10 µM	> 10 µM	
O=c1[nH]n(CC[Se][Se]CCn2[nH]c(=O)c3ccccc3c2=O)c(=O)c2ccccc12	> 10 µM	2.1 µM	> 10 µM	> 10 µM	1 µM	
Cc1cc(C)n(CCSSCCn2nc(C)cc2C)n1	> 10 µM	> 10 µM	> 10 µM	> 10 µM	> 10 µM	

Reference: ChEMBL document CHEMBL5360603, “Diselenide Covalent Allosteric Inhibitors of Glutaminase with Strong In Vivo Anticancer Activity” (ACS Med Chem Lett, 2023)
